Like-named read-outs stand apart in the source and are kept apart here.
Target: T1, SIRT1 (Homo sapiens, UniProt Q96EB6)
T1 sequence (Q96EB6 1-747): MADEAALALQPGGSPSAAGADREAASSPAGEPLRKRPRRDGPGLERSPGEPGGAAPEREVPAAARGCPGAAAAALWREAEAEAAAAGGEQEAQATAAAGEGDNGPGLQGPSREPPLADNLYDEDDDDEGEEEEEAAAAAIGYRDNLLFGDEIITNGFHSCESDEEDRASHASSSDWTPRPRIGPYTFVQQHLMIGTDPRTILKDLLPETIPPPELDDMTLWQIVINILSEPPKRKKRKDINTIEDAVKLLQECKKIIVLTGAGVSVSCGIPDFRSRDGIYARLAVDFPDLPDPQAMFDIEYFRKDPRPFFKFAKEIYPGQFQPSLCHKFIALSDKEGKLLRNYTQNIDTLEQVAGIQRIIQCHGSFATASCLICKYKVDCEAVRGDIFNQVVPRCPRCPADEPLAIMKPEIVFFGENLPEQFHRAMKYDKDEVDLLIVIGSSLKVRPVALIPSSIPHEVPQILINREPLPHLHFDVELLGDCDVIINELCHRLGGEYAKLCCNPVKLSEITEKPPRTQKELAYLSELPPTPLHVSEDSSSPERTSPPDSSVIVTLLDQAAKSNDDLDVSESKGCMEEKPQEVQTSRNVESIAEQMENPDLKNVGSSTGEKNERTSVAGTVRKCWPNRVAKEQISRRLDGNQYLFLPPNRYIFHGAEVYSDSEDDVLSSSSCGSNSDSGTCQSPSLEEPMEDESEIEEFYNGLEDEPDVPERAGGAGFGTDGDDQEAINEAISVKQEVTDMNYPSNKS
Test: Trp mass spectrometry assay (SIRT1 activation)
Format: biochemical
Details: for Emax: percent maximum fold activation of SIRT1, read-out: Tryp % Fold Act
In short: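 Activation is expressed as EC1.5, the concentration raising activity 50% above DMSO control, and as maximum percent of control. Mass-spec readout was OAADPR or deacetylated Trp peptide after a formic-acid-quenched 25-min, 25 °C reaction: 10 nM bacterially expressed His-SIRT1, 0.5 μM acetyl-p53-derived peptide, 120 μM NAD+, pH 7.5 HEPES with […].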

[1] = Trp mass spectrometry assay, EC1.5 = concentration giving 150% activation of SIRT1
[2] = concentration of test compound that results in 150% activation of SIRT1, Trp peptide substrate
[3] = Trp mass spectrometry assay, EC1.5 = concentration of test compound that results in 150% activation of SIRT1

Structure (SMILES) | Tryp AVG EC1.5 (μM) [1] | Emax (Trp mass spectrometry assay) | Tryp AVG EC1.5 (μM) [2] | Emax (Trp peptide substrate) | Tryp AVG EC1.5 (μM) [3]
O=C(Nc1cncc(F)c1)N1c2nc(-c3cccc(C(F)(F)F)c3)ccc2S(=O)(=O)N2CC[C@H]1C2 [Example 460] |  |  | B (EC1.5 1-25 μM) | ≥ 150% | 
O=C(Nc1ccccn1)N1c2nc(-c3cccc(C(F)(F)F)c3)ccc2N2CCC1CC2 [Example 158] |  | ≥ 150% |  |  | B (EC1.5 1-25 μM)
O=C(Nc1cccc(-c2ccc(C(F)(F)F)cn2)c1)N1c2nc(-c3cccc(C(F)(F)F)c3)ccc2N2CC[C@H]1C2 [Example 618] |  |  | B (EC1.5 1-25 μM) | ≥ 150% | 
O=C(Nc1cccnc1)N1c2nc(-c3cccc(C(F)(F)F)c3)ccc2N2CCC[C@@H]1C2 [Example 194] |  | ≥ 150% |  |  | A (EC1.5<1 μM)
CC(C)N1CCCN(c2ccc3c(n2)N(C(=O)Nc2ccncn2)[C@H]2CCCN3C2)CC1 [Example 447] |  |  | C (EC1.5>25 μM) | < 150% | 
N#Cc1cccc(-c2ccc3c(n2)N(C(=O)Nc2ccncn2)[C@H]2CCCN3C2)c1 [Example 352] |  |  | A (EC1.5<1 μM) | ≥ 150% | 
COc1cc(NC(=O)N2c3nc(-c4ccc(C)nc4)ccc3N3CCC[C@H]2C3)ncn1 [Example 478] |  |  | B (EC1.5 1-25 μM) | ≥ 150% | 
N#Cc1cccc(-c2ccc3c(n2)N(C(=O)Nc2ccncn2)[C@H]2CCN3C2)c1 [Example 181] |  | ≥ 150% |  |  | A (EC1.5<1 μM)
CC(C)NC(=O)N1c2nc(-c3cccc(C(F)(F)F)c3)ccc2N2CC[C@H]1C2 [Example 51] |  | ≥ 150% |  |  | 
O=C(Nc1cccc(C2CCNC2)c1)N1c2nc(-c3cccc(C(F)(F)F)c3)ccc2N2CC[C@H]1C2 (stereo partly drawn) [Example 593] |  |  | A (EC1.5<1 μM) | ≥ 150% | 
O=C(Nc1cnccn1)N1c2nc(-c3cc(C(F)(F)F)cc(C(F)(F)F)c3)ccc2C2CC[C@H]1C2 [Example 363] |  |  | B (EC1.5 1-25 μM) | ≥ 150% | 
O=C(Nc1ccccn1)N1c2nc(-c3cccc(CC(O)CO)c3)ccc2N2CC[C@H]1C2 (stereo partly drawn) [Example 354] |  |  | A (EC1.5<1 μM) | ≥ 150% | 
N#Cc1cccc(-c2ccc3c(n2)N(C(=O)Nc2cnccn2)[C@H]2CCCN3C2)c1 [Example 351] |  |  | A (EC1.5<1 μM) | ≥ 150% | 
O=C(Nc1cccc(-c2cnco2)c1)N1c2nc(-c3cncc(F)c3)ccc2N2CCC1CC2 [Example 574] |  |  | A (EC1.5<1 μM) | ≥ 150% | 
N#Cc1cncc(-c2ccc3c(n2)N(C(=O)Nc2cnccn2)[C@H]2CCN3C2)c1 [Example 459] |  |  | A (EC1.5<1 μM) | ≥ 150% | 
O=C(Nc1ccncc1)N1c2nc(-c3cccc(C(F)(F)F)c3)ccc2N2CCC[C@@H]1C2 [Example 195] |  | ≥ 150% |  |  | B (EC1.5 1-25 μM)
Cc1nc(NC(=O)N2c3nc(-c4cccc(OC(F)(F)F)c4)ccc3N3CC[C@H]2C3)sc1C [Example 165] |  | ≥ 150% |  |  | A (EC1.5<1 μM)
Cc1ccncc1-c1ccc2c(n1)N(C(=O)Nc1nc(C)c(C)s1)[C@H]1CCCN2C1 [Example 508] |  |  | C (EC1.5>25 μM) | ≥ 150% | 
Cc1nn(C)cc1-c1ccc2c(n1)N(C(=O)Nc1cccnc1)[C@H]1CCN2C1 [Example 488] |  |  | B (EC1.5 1-25 μM) | ≥ 150% | 
CS(=O)(=O)c1cncc(-c2ccc3c(n2)N(C(=O)Nc2ccccn2)[C@H]2CCCN3C2)c1 [Example 375] |  |  | A (EC1.5<1 μM) | ≥ 150% | 
O=C(Nc1ccccn1)N1c2nc(-c3cccc(OC[C@@H](O)CO)c3)ccc2N2CC[C@H]1C2 [Example 155] |  | ≥ 150% |  |  | B (EC1.5 1-25 μM)
O=C(Nc1ccncn1)N1c2nc(-c3cccc(N4CCCC4)c3)ccc2N2CC[C@H]1C2 [Example 193] |  | ≥ 150% |  |  | B (EC1.5 1-25 μM)
COc1cc(NC(=O)N2c3nc(-c4cccc(Cl)c4)ccc3N3CC[C@H]2C3)nc(OC)n1 [Example 103] |  | ≥ 150% |  |  | B (EC1.5 1-25 μM)
O=C(Nc1cncc(F)c1)N1c2nc(-c3cccc(N4CCC(F)(F)C4)c3)ccc2N2CC[C@H]1C2 [Example 271] |  |  | A (EC1.5<1 μM) | ≥ 150% | 

Next, values leading:

Tryp AVG EC1.5 (μM) [1] | Emax (Trp mass spectrometry assay) | Tryp AVG EC1.5 (μM) [2] | Emax (Trp peptide substrate) | Tryp AVG EC1.5 (μM) [3] | Structure (SMILES)
B (EC1.5 1-25 μM) | ≥ 150% |  |  |  | Cc1nc(NC(=O)N2c3nc(-c4cccc(Cl)c4)ccc3N3C[C@@H](O)[C@H]2C3)sc1C [Example 688]
B (EC1.5 1-25 μM) | ≥ 150% |  |  |  | O=C(Nc1cccnc1)N1c2nc(-c3cccc(Cl)c3)ccc2N2C[C@@H](O)[C@H]1C2 [Example 681]
A (EC1.5<1 μM) | ≥ 150% |  |  |  | O=C(Nc1cccnn1)N1c2nc(-c3cccc(Cl)c3)ccc2N2CC[C@H]1C2 [Example 822]
A (EC1.5<1 μM) | ≥ 150% |  |  |  | CN1CCN(c2ccnc(NC(=O)N3c4nc(-c5cccc(C(F)(F)F)c5)ccc4N4CC[C@H]3C4)n2)CC1 [Example 742]
A (EC1.5<1 μM) | ≥ 150% |  |  |  | O=C(Nc1cccc(C2=CCOCC2)n1)N1c2nc(-c3cccc(C(F)(F)F)c3)ccc2N2CC[C@H]1C2 [Example 658]
B (EC1.5 1-25 μM) | ≥ 150% |  |  |  | O=C(Nc1cccnn1)N1c2nc(-c3cccc(C(F)(F)F)c3)ccc2N2C[C@@H](O)[C@H]1C2 [Example 631]
A (EC1.5<1 μM) | ≥ 150% |  |  |  | O=C(Nc1cccc(-c2cnco2)n1)N1c2nc(-c3cccc(Cl)c3)ccc2N2C[C@@H](O)[C@H]1C2 [Example 693]
A (EC1.5<1 μM) | ≥ 150% |  |  |  | CC(C)(C)OC(=O)NCC#Cc1ccc(NC(=O)N2c3nc(-c4cccc(C(F)(F)F)c4)ccc3N3CCC[C@H]2C3)cc1-c1cnco1 [Example 753]
A (EC1.5<1 μM) | ≥ 150% |  |  |  | [N-]=[N+]=NCc1cc(N=[N+]=[N-])cc(-c2ccc3c(n2)N(C(=O)Nc2cnccn2)[C@H]2CCN3C2)c1 [Example 808]
A (EC1.5<1 μM) | ≥ 150% |  |  |  | CC(C)(C)OC(=O)NCC#Cc1ccc(NC(=O)N2c3nc(-c4cccc(C(F)(F)F)c4)ccc3N3CC[C@H]2C3)cc1-c1cnco1 [Example 751]
A (EC1.5<1 μM) | ≥ 150% |  |  |  | CCc1nnc(NC(=O)N2c3nc(-c4cccc(C(F)(F)F)c4)ccc3N3CC[C@H]2C3)s1 [Example 647]
A (EC1.5<1 μM) | ≥ 150% |  |  |  | O=C(Nc1nnc(-c2ccccc2)o1)N1c2nc(-c3cccc(C(F)(F)F)c3)ccc2N2CC[C@H]1C2 [Example 719]
A (EC1.5<1 μM) | ≥ 150% |  |  |  | N=C(NCCN)c1ccc(NC(=O)N2c3nc(-c4cccc(C(F)(F)F)c4)ccc3N3CCC[C@H]2C3)cc1 [Example 792]
B (EC1.5 1-25 μM) | ≥ 150% |  |  |  | O=C(Nc1cccnn1)N1c2nc(-c3cccc(Cl)c3)ccc2N2C[C@@H](O)[C@H]1C2 [Example 682]
A (EC1.5<1 μM) | ≥ 150% |  |  |  | CN(C)c1ccnc(NC(=O)N2c3nc(-c4cccc(C(F)(F)F)c4)ccc3N3CC[C@H]2C3)n1 [Example 747]
A (EC1.5<1 μM) | ≥ 150% |  |  |  | [N-]=[N+]=NCC(=O)NCc1ccc(NC(=O)N2c3nc(-c4cccc(C(F)(F)F)c4)ccc3N3CC[C@H]2C3)cc1 [Example 799]
C (EC1.5>25 μM) | < 150% |  |  |  | O=C(Nc1nnc(C(F)(F)F)s1)N1c2nc(-c3cccc(C(F)(F)F)c3)ccc2N2CC[C@H]1C2 [Example 650]
